Patent publication US20250162986A1, “Compounds and compositions for neurodegenerative diseases” (Universidade Nova de Lisboa, priority 2022, published 2025)
Counter-ions that a name gives are not always drawn.

Key:
Assay type in all cases: cell-based
[1] = tested on: N9 mouse microglia cell line; test: LPS-induced TNF-α release in microglia cells (ELISA); conditions: for activity at 5 µM: Mus musculus, Microglia, read-out: TNFα release (Fold-change relative to LPS); for release of TNF-α (FIG. 1): 100 nM, 2, 4 and 6 hours pre-incubation; for attenuation of TNFα release at lower concentrations: at and below 100 nanomolar (data not shown)
Procedure: (§1) The “N9” murine microglia cell line was cultured in EMEM (Eagle Minimum Essential Media) supplemented with 10% (v/v) FBS, […] L-glutamine, 1% (v/v) NEAA and maintained at 37° C., 5% (v/v) CO2. Experiments were performed on 24-well plates. Compounds were incubated in cells for the indicated amount of time (2, 4 or 6 hours) before the addition of the indicated inflammatory stimuli (Lipopolysaccharide (LPS) or TNFα:IFNγ).
The experiment was conducted in vitro using N9 mouse microglia cell line. Phenolic metabolites or derived-thereof were pre-incubated for 6 hours at 5 micromolar with microglia cells in cell media. Afterwards cells were washed and incubated with lipopolysaccharides for 24 hours. At the end of this period cell media was collected and the presence of TNF-α analyzed using ELISA, thus showing the results as shown in Table 1.
In an embodiment compounds resorcinol-sulfate and phloroglucinol-sulfate were pre-incubated at 100 nanomolar for 2, 4, 6 hours with the cells in the cell media. Afterwards cells were washed and incubated with lipopolysaccharides for 24 hours. At the end of this period cell media was collected and the presence of TNF-α analyzed using ELISA, thus showing the results as substantially depicted in FIG. 1.

[2] = tested on: N9 mouse microglia cell line; test: LPS-induced production of multiple cytokines in microglia cells (flow cytometry, LEGENDplex); conditions: 100 nM, 6 hours pre-incubation, then 24 hours lipopolysaccharides
Procedure: as §1
(§2) The experiment was conducted in vitro using N9 mouse microglia cell line. Phenolic metabolites were pre-incubated for 6 hours in the cell media at the indicated concentration. Afterwards cells were washed and incubated with lipopolysaccharides for 24 hours. At the end of this period cell media was collected and the presence of various cytokines analyzed using flow cytometry (LEGENDplex™ Mouse Macrophage/Microglia Panel), thus showing the results as substantially depicted in FIG. 2.

[3] = tested on: N9 mouse microglia cell line; test: TNF-α and IFNγ-induced production of multiple cytokines in microglia cells (flow cytometry, LEGENDplex); conditions: 100 nM, 6 hours pre-incubation, then 24 hours TNF-α 10 nM plus IFNγ 1 nM
Procedure: as §1
as §2, with “in the regular cell media” for “in the cell media”, “incubated with TNF-α 10 nM plus IFNγ 1 nM for 24” for “incubated with lipopolysaccharides for 24”, “in FIG. 3.” for “in FIG. 2.”

[4] = tested on: LUHMES cells (human dopaminergic cell line); test: Cell viability and ATP levels after MPP+ oxidative insult; conditions: 24 hours pre-treatment at 5 μM, then 24 hours MPP+; for ATP levels (FIG. 5B): luciferase; for cell viability (metabolic capacity) (FIG. 5A): resazurin
Procedure: The LUHMES cells (human dopaminergic cell line) were cultured in advanced DMEM-F12 ([…]) at 37° C. with 5% (v/v) CO2. Experiments were performed in 24 well plates. Compounds were incubated for 24 hours before addition of Parkinson inducing toxin MPP+ was added to cells.
The experiment was conducted in vitro using “LUHMES”, human dopaminergic cell line at 37° C. with 5% CO2. Phenolic metabolites were incubated for 24 hours at 5 μM. After this period cells were washed and incubated (or not) with MPP+ ([…]) for 24 hours in order to produce the oxidative insult, that mimics the dopaminergic lesions found in several neurodegenerative diseases, namely in Parkinson's Disease brain. Afterwards cell medium was replaced with new medium including the cell metabolic dyes: resazurin for 2 hours or luciferase for 30 min. Colour development was measured by fluorescence and luminescence respectively, in a Synergy (Biotek) plate reader, thus showing the results as substantially depicted in FIG. 5.

[5] = 5 micromolar, 6 hours pre-incubation, then 24 hours lipopolysaccharides, ELISA
[6] = then 24 hours lipopolysaccharides

Structure (SMILES): O=S(=O)(O)Oc1ccc(CO)c(O)c1O [2,3-dihydroxy-4-(hydroxymethyl)phenyl hydrogen sulfate]
- activity at 5 µM [1, 5]: 48 ± 7%

Structure (SMILES): Cc1ccc(OS(=O)(=O)O)c(O)c1O [2,3-dihydroxy-4-methylphenyl hydrogen sulfate]
- activity at 5 µM [1, 5]: 45 ± 4%

Structure (SMILES): COc1cccc(OS(=O)(=O)O)c1O [2-hydroxy-3-methoxyphenyl hydrogen sulfate]
- activity at 5 µM [1, 5]: 65 ± 11%

Structure (SMILES): COc1c(O)cccc1OS(=O)(=O)O [3-hydroxy-2-methoxyphenyl hydrogen sulfate]
- activity at 5 µM [1, 5]: 65 ± 8%

Structure (SMILES): COc1cc(O)cc(OS(=O)(=O)O)c1 [3-hydroxy-5-methoxyphenyl hydrogen sulfate]
- activity at 5 µM [1, 5]: 57 ± 6%

Structure (SMILES): COc1cc(C(=O)O)ccc1OS(=O)(=O)O [3-methoxy-4-(sulfooxy)benzoic acid]
- activity at 5 µM [1, 5]: 56 ± 16%

Structure (SMILES): COc1c(O)cc(C(=O)O)cc1OS(=O)(=O)O [4-O-methyl gallic acid-3-sulfate]
- TNFα release (Fold-change relative to LPS) [1, 5]: 0.50 ± 0.07 Fold-change relative to LPS

Structure (SMILES): O=S(=O)(O)Oc1cc(O)cc(O)c1 [Phloroglucinol-sulfate, 3,5-dihydroxyphenyl hydrogen sulfate]
- release of TNF-α (FIG. 1) [1, 6]: reduction in release of TNF-α
- activity at 5 µM [1, 5]: 57 ± 6%
- attenuation of TNFα release at lower concentrations [1]: capability to attenuate TNFα release at lower concentrations
- multiple cytokines (G-CSF, TNF-α, IL-6, IL-10, IL-1β, CCL17, IL-12p40, TGFβ1, CCL22, IL18, CXCL1) (FIG. 2) [2]: reduction in multiple cytokines
- multiple cytokines (TNF-α, CCL22, IL-10, CCL17, IL-1β, CXCL1, G-CSF, IL-6, IL-18, TGFβ1, IL23, IL-12p40, IL-12p70) (FIG. 3) [3]: reduction in multiple cytokines
- ATP levels (FIG. 5B) [4]: protective effects
- cell viability (metabolic capacity) (FIG. 5A) [4]: protective effects

Structure (SMILES): O=S(=O)(O)Oc1cccc(O)c1 [Resorcinol-sulfate, 3-hydroxyphenyl hydrogen sulfate]
- release of TNF-α (FIG. 1) [1, 6]: reduction in release of TNF-α
- activity at 5 µM [1, 5]: 58 ± 13%
- attenuation of TNFα release at lower concentrations [1]: capability to attenuate TNFα release at lower concentrations
- multiple cytokines (G-CSF, TNF-α, IL-6, IL-10, IL-1β, CCL17, IL-12p40, TGFβ1, CCL22, IL18, CXCL1) (FIG. 2) [2]: reduction in multiple cytokines
- multiple cytokines (TNF-α, CCL22, IL-10, CCL17, IL-1β, CXCL1, G-CSF, IL-6, IL-18, TGFβ1, IL23, IL-12p40, IL-12p70) (FIG. 3) [3]: reduction in multiple cytokines
- ATP levels (FIG. 5B) [4]: protective effects
- cell viability (metabolic capacity) (FIG. 5A) [4]: protective effects
